# Literature values, collected in patent US20250064725A1, “OPHTHALMIC PREPARATION OF TYROSINE KINASE INHIBITOR, AND PREPARATION METHOD THEREFOR AND USE THEREOF” (CHENGDU RUIMU BIOPHARMACEUTICALS CO., LTD., priority 2021, published 2025).
# Assays:
# [1] = test system: age-related macular degeneration; details: oral tablets 50, 100, 200 mg/day
# [2] = oral administration of tablets
Structure (SMILES),Toxicity outcome of the clinical trial [1],Visual improvement ([1]; after 6 months),Incidence rate of diarrhea [2] [%],Incidence rate of fatigue [2] [%],Incidence rate of hypertension [2] [%],Incidence rate of loss of appetite [2] [%],Incidence rate of nausea [2] [%]
Cc1[nH]c(/C=C2\C(=O)Nc3ccc(F)cc32)c(C)c1C(=O)N[C@H]1CCN(C(=O)N(C)C)C1 [Example X-82],suspended due to its toxicity,non-inferior,,,,,
CNC(=O)c1ccccc1Sc1ccc2c(/C=C/c3ccccn3)n[nH]c2c1 [axitinib],,,55,39,40,34,32
CNC(=O)c1cc(Oc2ccc(NC(=O)Nc3ccc(Cl)c(C(F)(F)F)c3)cc2)ccn1 [sorafenib],,,53,32,29,29,22
